Results: patent publication US7557112B2, “Aromatic-ring-fused pyrimidine derivative” (Astellas Pharma Inc., priority 2004, dated 2009)

Legend:
ICR mice = assay: Oral glucose tolerance test on normal mouse; format: in vivo; settings: at 30 minutes after glucose loading, relative to control group
Experimental: (2) Oral Glucose Tolerance Test on Normal Mouse
In this assay, preventive activities of test compounds against hyperglycemia following glucose loading were examined using normal mice and nateglinide, a commercially available oral anti-hyperglycemic agent, as a reference compound. The assay procedure is given below.
ICR mice (male, 6 weeks old) that had been preliminary bred for one week were fasted for 18 to 20 hours to use as test animals. Each test compound was dissolved in 0.5% methylcellulose solution and orally administered at 3 mg/kg (10 mg/kg for nateglinide) before glucose loading. Timing to administer the test compound was selected to be optimal for each test compound, which was 10 minutes before glucose loading for the compounds of the present invention or 30 minutes before glucose loading for nateglinide, which was a reference compound. The hypoglycemic rate (%) at 30 minutes after glucose loading was measured relative to the control group.

MIN6B1 cell = assay: Assay for promoting activity on insulin secretion; format: cell-based, mouse; settings: 10 μM test compound, KRB-HEPES with 16.8 mM glucose, 37° C., 22 minutes; relative to DMSO = 100%
Experimental: (1) Assay for Promoting Activity on Insulin Secretion
In this assay, promoting activities on insulin secretion of the test compounds were studied using MIN6B1 cell, which was a strain of mouse pancreatic β-cells, and glibenclamide, which was a commercially available insulin secretagogue, as a reference compound. The assay procedure is given below.
MIN6B1 cells were seeded on a 48-well plate at a concentration of 1×10^5 cells/well (0.25 ml) (The medium was prepared by adding FCS (fetal calf serum) to DMEM (Dulbecco's Modified Eagle Medium) containing 25 mM glucose such that the FCS concentration became 10%). After two days, the medium was suctioned by an aspirator, each well washed four times with 0.2 ml of KRE-HEPES buffer [Kregs-Ringer-bicarbonate-N-2-hydroxyethylpiperazine-N′-2-ethanesulfonic acid; 130 mM NaCl, 4.7 mM KCl, 1.2 mM KH2PO4, 1.2 mM MgCl2.6H2O, 0.25 mM CaCl2.2H2O, 2.5 mM NaHCO3, 0.5% BSA, and 10 mM N-2-hydroxyethylpiperazine-N′-2-ethanesulfonic acid (pH 7.4)] containing 2.8 mM glucose warmed to 37° C., 0.2 ml of said buffer was again added, and the cells were incubated at 37° C. for 30 to 60 minutes. […] The samples were pipetted and diluted by 25 to 51 times, and the insulin concentrations were analyzed using an insulin assay kit (Rat Insulin [^125I] Biotrak Assay System with Magnetic Separation; Amersham BioScience K.K.). […]

Structure (SMILES): Fc1cc(-c2nc(N3CCSC3)c3sccc3n2)c(F)cc1Cl [Example 99]
- Hypoglycemic rate, % (ICR mice; 3 mg/kg orally, 10 minutes before glucose loading): 36%

Structure (SMILES): CC(C)[C@H]1CC[C@H](C(=O)N[C@H](Cc2ccccc2)C(=O)O)CC1 [Nateglinide, nateglinide]
- Hypoglycemic rate, % (ICR mice; 10 mg/kg orally, 30 minutes before glucose loading): 26%

Structure (SMILES): COc1ccc(Cl)cc1C(=O)NCCc1ccc(S(=O)(=O)NC(=O)NC2CCCCC2)cc1 [Glibenclamide, glibenclamide]
- Promotion activity on insulin secretion, % (MIN6B1 cell): 122%
